# Patent US10864198B2, “Methods of preventing cardiovascular events in residual risk dyslipidemic populations” (Kowa Company, Ltd., priority 2016, dated 2020)
# Read-outs that look alike come from different tables or passages of the source.
# How the values were obtained:
# PPARδ = biological target: T1, PPARδ (Homo sapiens, UniProt Q03181); settings: PPAR transcriptional activity; Fruchart 2013 Table 1; cited from earlier work
# T1 sequence (Q03181 1-441): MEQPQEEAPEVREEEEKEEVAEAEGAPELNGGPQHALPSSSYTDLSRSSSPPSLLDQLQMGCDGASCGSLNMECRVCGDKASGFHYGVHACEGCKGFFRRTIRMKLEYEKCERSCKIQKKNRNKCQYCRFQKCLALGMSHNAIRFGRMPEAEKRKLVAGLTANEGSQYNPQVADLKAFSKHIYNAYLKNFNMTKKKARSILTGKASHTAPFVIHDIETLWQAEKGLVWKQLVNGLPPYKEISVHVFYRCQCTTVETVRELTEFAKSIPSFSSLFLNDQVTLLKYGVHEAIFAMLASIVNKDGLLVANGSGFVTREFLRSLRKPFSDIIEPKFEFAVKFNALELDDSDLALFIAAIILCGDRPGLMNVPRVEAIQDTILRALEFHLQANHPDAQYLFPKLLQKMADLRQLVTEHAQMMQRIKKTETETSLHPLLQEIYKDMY
# men with dyslipidemia = settings: Helsinki Heart Study and VA-HIT Study; cited from earlier work
# [1] = system: patients on statins with residual cardiovascular risk; settings: two clinical trials; cited from earlier work
# [2] = system: patients with fasting high TG and non-HDL-C treated with pitavastatin; experiment: Example 3: double-blind parallel-group study, pemafibrate add-on to pitavastatin, 12 weeks; assay type: in vivo, human; settings: for Fasting non-HDL-C reduction: with pitavastatin, placebo −5.9%; for Fasting TG reduction (percentage change from baseline): with pitavastatin 2 mg/day, P<0.001 vs placebo (−6.9%)
# Source text: The primary endpoint was the percentage change in TG from baseline and incidence of adverse drug reactions (ADRs) and adverse events (AEs).
# [3] = system: patients with type 2 diabetes mellitus with residual dyslipidemia on statin; experiment: Example 2: post-hoc analysis of type 2 diabetes patients of the Example 1 study; assay type: in vivo, human; settings: for increase in HDL-C / BQ LDL-C increase: significant
# Source text: Overall, 161 type 2 diabetes mellitus patients were randomized and 154 patients completed treatment. […] Tables 1-4 also report the results of the analyses, and compare the results to the results obtained for the general residual dyslipidemia population studied in Example 1.
# PPARγ = biological target: T2, PPARγ (Homo sapiens, UniProt P37231); settings: PPAR transcriptional activity; Fruchart 2013 Table 1; cited from earlier work
# T2 sequence (P37231 1-505): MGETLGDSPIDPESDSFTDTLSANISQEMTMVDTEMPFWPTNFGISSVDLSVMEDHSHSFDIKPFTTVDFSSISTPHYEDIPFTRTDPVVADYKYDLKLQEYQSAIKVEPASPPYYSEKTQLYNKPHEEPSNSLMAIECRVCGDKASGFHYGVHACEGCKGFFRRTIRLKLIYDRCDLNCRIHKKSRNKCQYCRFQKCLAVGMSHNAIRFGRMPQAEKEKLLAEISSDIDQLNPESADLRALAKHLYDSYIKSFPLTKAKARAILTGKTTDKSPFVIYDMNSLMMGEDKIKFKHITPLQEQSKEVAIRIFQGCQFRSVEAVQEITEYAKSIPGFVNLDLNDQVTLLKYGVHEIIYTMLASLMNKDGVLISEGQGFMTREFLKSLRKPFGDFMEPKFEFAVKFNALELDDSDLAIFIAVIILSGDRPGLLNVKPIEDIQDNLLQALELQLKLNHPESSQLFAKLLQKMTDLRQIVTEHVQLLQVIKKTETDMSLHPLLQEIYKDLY
# [4] = system: dyslipidemia patients on concurrent statin therapy; assay type: in vivo, human; settings: for LDL-C levels increase vs. placebo: significant
# Source text: The results of the study are depicted in FIGS. 1A-1D.
structure (smiles),measurement,setting,value
"CC(C)OC(=O)C(C)(C)Oc1ccc(C(=O)c2ccc(Cl)cc2)cc1 [Fenofibrate, reference compound]",PPARδ EC50,PPARδ,not activated
Cc1ccc(C)c(OCCCC(C)(C)C(=O)O)c1 [gemfibrozil],primary endpoint for reducing cardiovascular risk,men with dyslipidemia,met their primary endpoint
O=C(O)c1cccnc1 [niacin],prevention of cardiovascular events,[1],unable to prevent cardiovascular events
"CC[C@@H](Oc1cccc(CN(CCCOc2ccc(OC)cc2)c2nc3ccccc3o2)c1)C(=O)O [pemafibrate, Pemafibrate]",fasting plasma glucose compared to placebo,"[2]; 0.4 mg/day, P=0.003",significant reductions
same,HOMA-IR compared to placebo,"[2]; 0.4 mg/day, P=0.019",significant reductions
same,very small LDL-C compared to placebo,"[2]; HPLC analysis, P<0.05",significant reduction
same,effect on total LDL-C,"[2]; add-on to pitavastatin, 12 weeks",neutral effect
same,Apo CIII compared to placebo,"[2]; all pemafibrate groups, P<0.01",reductions
same,HDL-C compared to placebo,"[2]; all pemafibrate groups, P<0.01",Significant increase
same,VLDL-C compared to placebo,"[2]; all pemafibrate groups, P<0.01",reductions
same,remnant lipoprotein cholesterol compared to placebo,"[2]; all pemafibrate groups, P<0.01",reductions
same,Fasting non-HDL-C reduction,"[2]; pemafibrate 0.1 mg, 12 weeks",−11.3%
same,Fasting TG reduction (percentage change from baseline),"[2]; pemafibrate 0.1 mg/day twice-daily, 12 weeks",−46.1%
same,Fasting non-HDL-C reduction,"[2]; pemafibrate 0.2 mg, 12 weeks",−14.1%
same,Fasting TG reduction (percentage change from baseline),"[2]; pemafibrate 0.2 mg/day twice-daily, 12 weeks",−53.4%
same,Fasting non-HDL-C reduction,"[2]; pemafibrate 0.4 mg, 12 weeks",−13.3%
same,Fasting TG reduction (percentage change from baseline),"[2]; pemafibrate 0.4 mg/day twice-daily, 12 weeks",−52.0%
same,increase in HDL-C,[3]; 0.05 mg BID,11.39%
same,increase in HDL-C,[3]; 0.1 mg BID,11.94%
same,BQ LDL-C increase,[3]; 0.1 mg QD,6.7%
same,BQ LDL-C increase,[3]; 0.2 mg BID,1.8%
same,increase in HDL-C,[3]; 0.2 mg QD,9.48%
same,TG levels,[3]; across all doses,significantly reduced
same,Apo B48 levels,[3]; all doses,significantly reduced
same,Apo CIII levels,[3]; all doses,significantly reduced
same,remnant-C levels,[3]; all doses,significantly reduced
same,change in total Apo B,[3]; any dose,no significant change
same,EC50,PPARγ,2300 nM
same,LDL-C levels increase vs. placebo,"[4]; 0.1 mg BID, 12 weeks",22.46%
same,Non-HDL-C levels,"[4]; 0.2 mg BID, 12 weeks",significantly reduced
same,LDL-C levels increase vs. placebo,"[4]; 0.2 mg BID, 12 weeks",24.25%
same,Non-HDL-C levels,"[4]; 0.2 mg QD, 12 weeks",significantly reduced
same,LDL-C levels increase vs. placebo,"[4]; 0.4 mg QD, 12 weeks",18.74%
same,TG levels,[4]; all treatment groups after 12 weeks,significantly reduced
same,change in total Apo B,"[4]; any dose, 12 weeks",no significant change
same,"Adverse events, patients","[4]; both, human, in vivo, 12 weeks",46.4%
same,EC50,PPARδ,1000 nM
